Reference: article PMC3848336, “Aurora Isoform Selectivity: Design and Synthesis of Imidazo[4,5-b]pyridine Derivatives as Highly Selective Inhibitors of Aurora-A Kinase in Cells” (Journal of Medicinal Chemistry, 2013)
Read-outs that look alike come from different tables or passages of the source.

Columns and labels:
Assay in all cases: Kinase selectivity profiling
Type in all cases: biochemical
PKCa = PKCa (Homo sapiens, UniProt P17252)
Excerpt: (§1) Compound 28c was profiled against a panel of 110 kinases at the International Centre for Protein Kinase Profiling, Division of Signal Transduction Therapy, University of Dundee. Compound 40f was profiled against a panel of 50 kinases (MRC-PPU Express Screen) also at the International Centre for Protein Kinase Profiling.

CHK2 = CHK2 (Homo sapiens, UniProt O96017)
Excerpt: as §1

Src = Src (Homo sapiens, UniProt P12931)
Excerpt: as §1

ROCK 2 = ROCK 2 (Rattus norvegicus, UniProt Q62868)
Excerpt: as §1

MARK3 = MARK3 (Homo sapiens, UniProt P27448)
Excerpt: as §1

TrkA = TrkA (Homo sapiens, UniProt P04629)
Excerpt: as §1

LKB1 = LKB1 (Homo sapiens, UniProt Q15831)
Excerpt: as §1

PLK1 = PLK1 (Homo sapiens, UniProt P53350)
Excerpt: as §1

PAK4 = PAK4 (Homo sapiens, UniProt O96013)
Excerpt: as §1

SYK = SYK (Homo sapiens, UniProt P43405)
Excerpt: as §1

VEGFR (VEGFR1) = VEGFR (VEGFR1) (Homo sapiens, UniProt P17948); details: read-out: % activity remaining, VEG2FR
Excerpt: as §1

JAK2 = JAK2 (Homo sapiens, UniProt O60674)
Excerpt: as §1

PIM1 = PIM1 (Homo sapiens, UniProt P11309)
Excerpt: as §1

BTK = BTK (Homo sapiens, UniProt Q06187)
Excerpt: as §1

MLK3 = MLK3 (Homo sapiens, UniProt Q16584)
Excerpt: as §1

SGK1 = SGK1 (Homo sapiens, UniProt O00141)
Excerpt: as §1

RSK1 = RSK1 (Homo sapiens, UniProt Q15418)
Excerpt: as §1

S6K1 = S6K1 (Homo sapiens, UniProt P23443)
Excerpt: as §1

NEK6 = NEK6 (Homo sapiens, UniProt Q9HC98)
Excerpt: as §1

HIPK2 = HIPK2 (Homo sapiens, UniProt Q9H2X6)
Excerpt: as §1

MKK1 = MKK1 (Homo sapiens, UniProt Q02750)
Excerpt: as §1

GSK3b = GSK3b (Homo sapiens, UniProt P49841)
Excerpt: as §1

PKBa = PKBa (Homo sapiens, UniProt P31749, S473D)
Excerpt: as §1

PKA = PKA (Homo sapiens, UniProt P17612)
Excerpt: as §1

HER4 = HER4 (Homo sapiens, UniProt Q15303)
Excerpt: as §1

PRK2 = PRK2 (Homo sapiens, UniProt Q16513)
Excerpt: as §1

SRPK1 = SRPK1 (Homo sapiens, UniProt Q96SB4)
Excerpt: as §1

p38a MAPK = p38a MAPK (Homo sapiens, UniProt Q16539)
Excerpt: as §1

JNK1 = JNK1 (Homo sapiens, UniProt P45983)
Excerpt: as §1

TAK1 = TAK1 (Homo sapiens, UniProt O43318)
Excerpt: as §1

CAMK1 = CAMK1 (Homo sapiens, UniProt Q14012)
Excerpt: as §1

EPH-A2 = EPH-A2 (Homo sapiens, UniProt P29317); details: read-out: % activity remaining, EPH2A2
Excerpt: as §1

PDK1 = PDK1 (Homo sapiens, UniProt O15530)
Excerpt: as §1

MSK1 = MSK1 (Homo sapiens, UniProt O75582)
Excerpt: as §1

TBK1 = TBK1 (Homo sapiens, UniProt Q9UHD2)
Excerpt: as §1

SmMLCK = SmMLCK (Homo sapiens, UniProt Q15746)
Excerpt: as §1

TTK = TTK (Homo sapiens, UniProt P33981)
Excerpt: as §1

CAMKKb = CAMKKb (Homo sapiens, UniProt Q96RR4)
Excerpt: as §1

IGF-1R = IGF-1R (Homo sapiens, UniProt P08069); details: read-out: % activity remaining, IGF21R
Excerpt: as §1

RIPK2 = RIPK2 (Homo sapiens, UniProt O43353)
Excerpt: as §1

PKD1 = PKD1 (Homo sapiens, UniProt Q15139)
Excerpt: as §1

DYRK1A = DYRK1A (Homo sapiens, UniProt Q13627)
Excerpt: as §1

[1] = 50-kinase panel (MRC-PPU Express Screen)

Chain of Src (P12931 whole entry): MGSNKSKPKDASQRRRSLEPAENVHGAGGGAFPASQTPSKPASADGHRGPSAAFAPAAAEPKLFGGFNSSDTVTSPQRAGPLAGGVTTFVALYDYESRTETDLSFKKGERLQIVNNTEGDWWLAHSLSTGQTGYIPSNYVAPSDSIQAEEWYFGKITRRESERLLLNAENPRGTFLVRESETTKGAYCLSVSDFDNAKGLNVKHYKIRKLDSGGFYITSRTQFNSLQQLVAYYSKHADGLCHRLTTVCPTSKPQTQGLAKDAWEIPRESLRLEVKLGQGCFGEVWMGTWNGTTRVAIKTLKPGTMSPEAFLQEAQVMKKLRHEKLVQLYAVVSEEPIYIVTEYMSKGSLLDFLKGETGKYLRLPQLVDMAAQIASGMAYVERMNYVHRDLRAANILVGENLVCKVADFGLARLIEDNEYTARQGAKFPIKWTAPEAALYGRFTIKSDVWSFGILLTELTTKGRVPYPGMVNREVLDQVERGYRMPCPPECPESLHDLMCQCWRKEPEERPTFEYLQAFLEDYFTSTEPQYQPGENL
Chain of PIM1 (P11309 whole entry): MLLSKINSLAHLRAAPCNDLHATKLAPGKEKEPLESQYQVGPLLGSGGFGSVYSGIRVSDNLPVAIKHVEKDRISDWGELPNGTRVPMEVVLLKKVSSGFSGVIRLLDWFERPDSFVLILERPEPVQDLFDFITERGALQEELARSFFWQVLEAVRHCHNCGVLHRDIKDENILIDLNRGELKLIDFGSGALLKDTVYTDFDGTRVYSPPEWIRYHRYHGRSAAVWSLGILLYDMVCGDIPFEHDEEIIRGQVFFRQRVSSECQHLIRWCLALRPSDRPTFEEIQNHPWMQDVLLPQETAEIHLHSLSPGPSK
Chain of MARK3 (P27448 whole entry): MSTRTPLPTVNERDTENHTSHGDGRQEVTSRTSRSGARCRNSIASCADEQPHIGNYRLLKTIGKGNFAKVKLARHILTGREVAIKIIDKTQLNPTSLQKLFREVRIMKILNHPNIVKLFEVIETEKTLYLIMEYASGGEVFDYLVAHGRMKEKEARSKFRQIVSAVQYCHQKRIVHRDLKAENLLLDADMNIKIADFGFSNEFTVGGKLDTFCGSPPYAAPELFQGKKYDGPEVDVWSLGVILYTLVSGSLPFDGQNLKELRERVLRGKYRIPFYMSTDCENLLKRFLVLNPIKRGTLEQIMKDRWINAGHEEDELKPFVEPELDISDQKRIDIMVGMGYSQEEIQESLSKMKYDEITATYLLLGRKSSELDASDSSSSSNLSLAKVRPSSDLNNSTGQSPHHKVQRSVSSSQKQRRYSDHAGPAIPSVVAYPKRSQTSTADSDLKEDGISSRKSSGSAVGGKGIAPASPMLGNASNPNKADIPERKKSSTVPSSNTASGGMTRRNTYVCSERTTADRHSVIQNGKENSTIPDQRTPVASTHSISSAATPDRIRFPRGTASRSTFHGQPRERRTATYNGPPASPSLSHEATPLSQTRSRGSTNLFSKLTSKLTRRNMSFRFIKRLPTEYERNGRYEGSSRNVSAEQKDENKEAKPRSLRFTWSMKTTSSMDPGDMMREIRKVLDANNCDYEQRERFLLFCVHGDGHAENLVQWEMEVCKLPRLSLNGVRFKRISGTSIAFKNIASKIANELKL
Chain of MKK1 (Q02750 whole entry, species assumed): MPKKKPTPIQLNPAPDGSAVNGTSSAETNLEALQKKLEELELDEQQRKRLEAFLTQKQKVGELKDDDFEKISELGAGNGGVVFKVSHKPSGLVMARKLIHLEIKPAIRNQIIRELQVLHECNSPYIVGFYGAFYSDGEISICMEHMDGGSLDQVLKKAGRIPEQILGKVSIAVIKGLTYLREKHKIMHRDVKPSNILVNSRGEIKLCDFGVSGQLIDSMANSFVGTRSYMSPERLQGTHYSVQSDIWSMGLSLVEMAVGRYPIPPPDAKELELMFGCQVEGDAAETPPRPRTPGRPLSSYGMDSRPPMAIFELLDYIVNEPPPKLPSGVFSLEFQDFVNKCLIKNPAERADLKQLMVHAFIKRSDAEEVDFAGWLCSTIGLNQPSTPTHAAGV
Chain of NEK6 (Q9HC98 whole entry): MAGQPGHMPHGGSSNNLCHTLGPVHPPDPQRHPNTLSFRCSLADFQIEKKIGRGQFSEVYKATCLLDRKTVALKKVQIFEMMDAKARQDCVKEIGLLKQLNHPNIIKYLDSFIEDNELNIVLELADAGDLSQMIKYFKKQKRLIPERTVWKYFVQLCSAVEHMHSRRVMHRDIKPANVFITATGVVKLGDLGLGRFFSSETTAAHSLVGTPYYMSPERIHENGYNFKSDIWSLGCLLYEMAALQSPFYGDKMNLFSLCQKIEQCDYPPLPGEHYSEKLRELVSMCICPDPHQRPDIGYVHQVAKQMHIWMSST
Chain of TAK1 (O43318 1-303 limits assumed): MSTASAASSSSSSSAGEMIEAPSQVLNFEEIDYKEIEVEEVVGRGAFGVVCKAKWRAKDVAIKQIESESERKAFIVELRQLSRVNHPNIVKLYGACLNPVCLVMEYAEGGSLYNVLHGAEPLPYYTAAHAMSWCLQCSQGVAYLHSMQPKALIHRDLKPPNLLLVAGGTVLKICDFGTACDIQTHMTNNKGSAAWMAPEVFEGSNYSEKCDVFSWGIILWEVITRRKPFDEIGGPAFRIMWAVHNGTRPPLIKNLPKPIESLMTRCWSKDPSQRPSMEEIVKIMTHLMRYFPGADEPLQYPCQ
Chain of CAMK1 (Q14012 whole entry): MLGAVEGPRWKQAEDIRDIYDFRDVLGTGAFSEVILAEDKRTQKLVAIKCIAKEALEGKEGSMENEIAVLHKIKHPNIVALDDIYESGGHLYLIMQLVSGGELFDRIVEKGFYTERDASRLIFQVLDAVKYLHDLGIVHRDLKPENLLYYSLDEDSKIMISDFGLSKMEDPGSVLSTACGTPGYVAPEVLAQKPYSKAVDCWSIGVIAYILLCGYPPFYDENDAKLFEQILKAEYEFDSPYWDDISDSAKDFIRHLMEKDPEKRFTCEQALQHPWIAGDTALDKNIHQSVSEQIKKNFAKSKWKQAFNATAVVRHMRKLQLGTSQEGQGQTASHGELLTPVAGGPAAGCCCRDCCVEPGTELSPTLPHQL
Chain of GSK3b (P49841 whole entry): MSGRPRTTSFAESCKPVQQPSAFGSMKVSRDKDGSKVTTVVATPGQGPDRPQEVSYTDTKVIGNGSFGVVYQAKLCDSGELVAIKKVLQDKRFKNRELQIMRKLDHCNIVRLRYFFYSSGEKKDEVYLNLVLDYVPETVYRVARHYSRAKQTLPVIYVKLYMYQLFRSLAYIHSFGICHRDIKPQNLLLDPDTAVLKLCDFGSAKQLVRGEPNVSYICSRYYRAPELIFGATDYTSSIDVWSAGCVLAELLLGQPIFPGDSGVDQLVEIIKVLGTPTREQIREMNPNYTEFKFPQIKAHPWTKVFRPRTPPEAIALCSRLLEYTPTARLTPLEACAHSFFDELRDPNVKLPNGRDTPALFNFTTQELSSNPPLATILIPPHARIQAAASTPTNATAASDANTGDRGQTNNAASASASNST
Chain of BTK (Q06187 whole entry): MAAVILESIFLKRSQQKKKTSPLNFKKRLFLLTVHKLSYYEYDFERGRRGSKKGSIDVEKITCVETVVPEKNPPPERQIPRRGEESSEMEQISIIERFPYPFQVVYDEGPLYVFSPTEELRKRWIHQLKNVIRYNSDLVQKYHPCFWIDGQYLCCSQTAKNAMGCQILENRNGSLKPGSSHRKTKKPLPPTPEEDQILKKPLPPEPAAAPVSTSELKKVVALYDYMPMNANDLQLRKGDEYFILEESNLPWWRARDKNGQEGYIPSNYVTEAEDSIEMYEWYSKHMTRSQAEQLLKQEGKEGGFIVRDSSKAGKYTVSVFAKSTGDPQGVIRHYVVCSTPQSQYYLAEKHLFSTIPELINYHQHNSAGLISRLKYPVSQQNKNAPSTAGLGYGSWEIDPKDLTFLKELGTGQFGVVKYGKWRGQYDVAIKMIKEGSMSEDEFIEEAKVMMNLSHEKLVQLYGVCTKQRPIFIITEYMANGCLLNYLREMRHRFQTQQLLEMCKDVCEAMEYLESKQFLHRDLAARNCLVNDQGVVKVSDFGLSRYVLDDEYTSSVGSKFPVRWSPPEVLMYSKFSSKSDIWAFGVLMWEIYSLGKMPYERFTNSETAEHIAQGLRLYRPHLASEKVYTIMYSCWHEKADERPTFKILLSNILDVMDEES
Chain of CAMKKb (Q96RR4 whole entry): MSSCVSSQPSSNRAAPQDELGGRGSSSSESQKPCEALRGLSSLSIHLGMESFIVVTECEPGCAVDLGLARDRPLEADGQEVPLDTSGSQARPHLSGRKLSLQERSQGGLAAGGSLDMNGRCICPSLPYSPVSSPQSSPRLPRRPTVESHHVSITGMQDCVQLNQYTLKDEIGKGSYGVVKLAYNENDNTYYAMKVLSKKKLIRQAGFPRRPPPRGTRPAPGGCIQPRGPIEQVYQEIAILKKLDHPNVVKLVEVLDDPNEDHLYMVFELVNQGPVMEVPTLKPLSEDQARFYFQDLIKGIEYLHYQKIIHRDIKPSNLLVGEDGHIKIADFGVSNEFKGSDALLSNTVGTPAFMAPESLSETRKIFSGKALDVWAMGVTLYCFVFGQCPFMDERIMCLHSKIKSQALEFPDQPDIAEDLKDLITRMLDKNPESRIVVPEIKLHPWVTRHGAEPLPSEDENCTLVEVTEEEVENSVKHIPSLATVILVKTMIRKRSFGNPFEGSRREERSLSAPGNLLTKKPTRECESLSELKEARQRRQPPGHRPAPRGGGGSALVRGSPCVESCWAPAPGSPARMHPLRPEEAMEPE

Q: Which remaining activity at 1 µM (PKCa; 110-kinase panel) does the source give for `Cc1nn(C)cc1-c1nc2c(Oc3ccc(C(=O)Nc4ccccc4)cc3)c(Cl)cnc2[nH]1` [compound 28c, 4-((6-Chloro-2-(1,3-dimethyl-1H-pyrazol-4-yl)-3H-imidazo[4,5-b]pyridin-7-yl)oxy)-N-phenylbenzamide] here?
A: The remaining activity at 1 µM was 110%.

Q: And the remaining activity at 1 µM (CHK2; 110-kinase panel)?
A: Its remaining activity at 1 µM is 111%.

Q: And the remaining activity at 1 µM (Src; 110-kinase panel)?
A: Its remaining activity at 1 µM is 80%.

Q: And the remaining activity at 1 µM (ROCK 2; 110-kinase panel)?
A: Its remaining activity at 1 µM is 80%.

Q: What about the remaining activity at 1 µM (MARK3; 110-kinase panel) of the same molecule?
A: Its remaining activity at 1 µM is 83%.

Q: And the remaining activity at 1 µM (TrkA; 110-kinase panel)?
A: Its remaining activity at 1 µM is 100%.

Q: And the remaining activity at 1 µM (LKB1; 110-kinase panel)?
A: The remaining activity at 1 µM was 97%.

Q: And the remaining activity at 1 µM (PLK1; 110-kinase panel)?
A: The remaining activity at 1 µM was 107%.

Q: What about the remaining activity at 1 µM (PAK4; 110-kinase panel) of the same molecule?
A: The remaining activity at 1 µM was 82%.

Q: And the remaining activity at 1 µM (SYK; 110-kinase panel)?
A: Its remaining activity at 1 µM is 117%.

Q: And the remaining activity at 1 µM (VEGFR (VEGFR1); 110-kinase panel)?
A: The remaining activity at 1 µM was 17%.

Q: And the remaining activity at 1 µM (JAK2; 110-kinase panel)?
A: The remaining activity at 1 µM was 63%.

Q: And the remaining activity at 1 µM (PIM1; 110-kinase panel)?
A: Its remaining activity at 1 µM is 99%.

Q: What about the remaining activity at 1 µM (BTK; 110-kinase panel) of the same molecule?
A: Its remaining activity at 1 µM is 110%.

Q: And the remaining activity at 1 µM (MLK3; 110-kinase panel)?
A: The remaining activity at 1 µM was 46%.

Q: And the remaining activity at 1 µM (SGK1; 110-kinase panel)?
A: The remaining activity at 1 µM was 99%.

Q: And the remaining activity at 1 µM (RSK1; 110-kinase panel)?
A: Its remaining activity at 1 µM is 88%.

Q: What about the remaining activity at 1 µM (S6K1; 110-kinase panel) of the same molecule?
A: Its remaining activity at 1 µM is 81%.

Q: What about the remaining activity at 1 µM (NEK6; 110-kinase panel) of the same molecule?
A: Its remaining activity at 1 µM is 129%.

Q: What about the remaining activity at 1 µM (HIPK2; 110-kinase panel) of the same molecule?
A: Its remaining activity at 1 µM is 83%.

Q: What about the remaining activity at 1 µM (MKK1; 110-kinase panel) of the same molecule?
A: The remaining activity at 1 µM was 77%.

Q: And the remaining activity at 1 µM (GSK3b; 110-kinase panel)?
A: The remaining activity at 1 µM was 8%.

Q: What about the remaining activity at 1 µM (PKBa; 110-kinase panel) of the same molecule?
A: The remaining activity at 1 µM was 105%.

Q: What about the remaining activity at 1 µM (PKA; 110-kinase panel) of the same molecule?
A: The remaining activity at 1 µM was 101%.

Q: What about the remaining activity at 1 µM (HER4; 110-kinase panel) of the same molecule?
A: Its remaining activity at 1 µM is 95%.

Q: And the remaining activity at 1 µM (PRK2; 110-kinase panel)?
A: Its remaining activity at 1 µM is 81%.

Q: And the remaining activity at 1 µM (SRPK1; 110-kinase panel)?
A: The remaining activity at 1 µM was 89%.

Q: What about the remaining activity at 1 µM (p38a MAPK; 110-kinase panel) of the same molecule?
A: Its remaining activity at 1 µM is 91%.

Q: And the remaining activity at 1 µM (JNK1; 110-kinase panel)?
A: The remaining activity at 1 µM was 92%.

Q: And the remaining activity at 1 µM (TAK1; 110-kinase panel)?
A: Its remaining activity at 1 µM is 31%.

Q: And the remaining activity at 1 µM (CAMK1; 110-kinase panel)?
A: Its remaining activity at 1 µM is 100%.

Q: What about the remaining activity at 1 µM (EPH-A2; 110-kinase panel) of the same molecule?
A: The remaining activity at 1 µM was 138%.

Q: And the remaining activity at 1 µM (PDK1; 110-kinase panel)?
A: Its remaining activity at 1 µM is 87%.

Q: And the remaining activity at 1 µM (MSK1; 110-kinase panel)?
A: The remaining activity at 1 µM was 89%.

Q: And the remaining activity at 1 µM (TBK1; 110-kinase panel)?
A: Its remaining activity at 1 µM is 86%.

Q: What about the remaining activity at 1 µM (SmMLCK; 110-kinase panel) of the same molecule?
A: Its remaining activity at 1 µM is 91%.

Q: And the remaining activity at 1 µM (TTK; 110-kinase panel)?
A: The remaining activity at 1 µM was 102%.

Q: What about the remaining activity at 1 µM (CAMKKb; 110-kinase panel) of the same molecule?
A: Its remaining activity at 1 µM is 86%.

Q: And the remaining activity at 1 µM (IGF-1R; 110-kinase panel)?
A: The remaining activity at 1 µM was 98%.

Q: What about the remaining activity at 1 µM (RIPK2; 110-kinase panel) of the same molecule?
A: The remaining activity at 1 µM was 98%.

Q: What about the remaining activity at 1 µM (PKD1; 110-kinase panel) of the same molecule?
A: Its remaining activity at 1 µM is 109%.

Q: What about the remaining activity at 1 µM (DYRK1A; 110-kinase panel) of the same molecule?
A: Its remaining activity at 1 µM is 105%.

Q: Which results are given for `Cc1nn(C)cc1-c1nc2c(Oc3ccc(C(=O)NC4CCC4)cc3)c(Cl)cnc2[nH]1` [compound 40f, 4-((6-Chloro-2-(1,3-dimethyl-1H-pyrazol-4-yl)-3H-imidazo[4,5-b]pyridin-7-yl)oxy)-N-cyclobutylbenzamide]?
A: remaining activity at 1 µM (PKCa; [1]): 96%; remaining activity at 1 µM (CHK2; [1]): 85%; remaining activity at 1 µM (Src; [1]): 86%; remaining activity at 1 µM (ROCK 2; [1]): 73%; remaining activity at 1 µM (MARK3; [1]): 107%; remaining activity at 1 µM (TrkA; [1]): 58%; remaining activity at 1 µM (LKB1; [1]): 108%; remaining activity at 1 µM (PLK1; [1]): 104%; remaining activity at 1 µM (PAK4; [1]): 89%; remaining activity at 1 µM (SYK; [1]): 84%; remaining activity at 1 µM (VEGFR (VEGFR1); [1]): 7%; remaining activity at 1 µM (JAK2; [1]): 75%; remaining activity at 1 µM (PIM1; [1]): 87%; remaining activity at 1 µM (BTK; [1]): 101%; remaining activity at 1 µM (MLK3; [1]): 31%; remaining activity at 1 µM (SGK1; [1]): 85%; remaining activity at 1 µM (RSK1; [1]): 90%; remaining activity at 1 µM (S6K1; [1]): 81%; remaining activity at 1 µM (NEK6; [1]): 90%; remaining activity at 1 µM (HIPK2; [1]): 98%; remaining activity at 1 µM (MKK1; [1]): 94%; remaining activity at 1 µM (GSK3b; [1]): 25%; remaining activity at 1 µM (PKBa; [1]): 96%; remaining activity at 1 µM (PKA; [1]): 90%; remaining activity at 1 µM (HER4; [1]): 92%; remaining activity at 1 µM (PRK2; [1]): 92%; remaining activity at 1 µM (SRPK1; [1]): 95%; remaining activity at 1 µM (p38a MAPK; [1]): 107%; remaining activity at 1 µM (JNK1; [1]): 100%; remaining activity at 1 µM (TAK1; [1]): 59%; remaining activity at 1 µM (CAMK1; [1]): 85%; remaining activity at 1 µM (EPH-A2; [1]): 88%; remaining activity at 1 µM (PDK1; [1]): 86%; remaining activity at 1 µM (MSK1; [1]): 94%; remaining activity at 1 µM (TBK1; [1]): 93%; remaining activity at 1 µM (SmMLCK; [1]): 87%; remaining activity at 1 µM (TTK; [1]): 74%; remaining activity at 1 µM (CAMKKb; [1]): 86%; remaining activity at 1 µM (IGF-1R; [1]): 78%; remaining activity at 1 µM (RIPK2; [1]): 107%; remaining activity at 1 µM (PKD1; [1]): 113%; remaining activity at 1 µM (DYRK1A; [1]): 104%
